The record followed here is ChEMBL document CHEMBL1201862, “PubChem BioAssay data set” (2004).

As a reminder, the GI50 is the concentration at which growth is held to half of that of the control.

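Step 1: Grow cells in 96-well plates. Step 2: Expose to compound for 48 hours at 5 concentrations. Step 3: Interpolate endpoints linearly; if unreached, use highest concentration. GI50: concentration for 50% inhibition of growth.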 Active and inactive are the calls of the source. No stated cut-off is given here; in the data, active = GI50 up to about 1.1 µM and inactive = higher.

Holding throughout (test): DTP human tumour cell line panel, 48 h
Experiment [1] deals with SR.
Experiment [2] relates to DMS-114.
Experiment [3] relates to SF-539.
The subject of experiment [4] is SNB-78.
The test system of experiment [5] is M19-MEL.
The subject of experiment [6] is XF498.
The subject of experiment [7] is RPMI-8226.
For experiment [8], the system named is TK-10.
The test system of experiment [9] is HOP-18.
In experiment [10] the test system is SK-MEL-2.
The test system of experiment [11] is HOP-62.
In experiment [12] the test system is UACC-257.
In experiment [13] the test system is KM-20L2.
In experiment [14] the test system is HCC 2998.
For experiment [15], the system named is ACHN.
Experiment [16] deals with HOP-92.
For experiment [17], the system named is MDA-MB-435.
The subject of experiment [18] is Hs-578T.
Experiment [19] has as its system MCF7.
In experiment [20] the test system is DU-145.

`COc1ccc(C(=O)Cc2ccc(Cl)cc2)cc1OC`: the GI50 in [1], in experiment [2], in experiment [3], in experiment [4], in [5] and in experiment [6] was > 100 µM (inactive) throughout. For the same compound, the GI50 in experiment [7], in experiment [8], in [9], in experiment [10], in experiment [11] and in experiment [12] was > 100 µM (inactive) in each case. Besides, the GI50 in experiment [13], in experiment [14] and in [15] was > 100 µM (inactive) each time.
Consider `Cc1cc(Cl)ccc1NC1=NC(=O)C(CC(=O)Nc2cccc(Cl)c2)S1` (centres undefined), for which the GI50 in [2] was 12.1 µM (inactive); in experiment [3], 77.6 µM (inactive); in experiment [4], > 100 µM (inactive); in experiment [5] it was 43.9 µM (inactive); in experiment [6], 28.4 µM (inactive); in experiment [8], 83.6 µM (inactive). Further, the GI50 in experiment [9] was > 100 µM (inactive); in [16] it was 14.2 µM (inactive); in experiment [10], 37.8 µM (inactive); in experiment [11], > 100 µM (inactive); in experiment [12], 38.8 µM (inactive); in experiment [13] it was 26.5 µM (inactive). Moreover, the GI50 is 63.2 µM (inactive) in [14] and 11.2 µM (inactive) in [15].
For `O=C1C(Cl)=C(c2ccc([N+](=O)[O-])cc2)C(=O)c2c(O)cccc21`, the GI50 in experiment [1] is 0.134 µM (active); in experiment [2] it was 0.202 µM (active); in experiment [3], 0.341 µM (active); in [4], 1.83 µM (inactive); in [5], 1.57 µM (inactive); in [6] it was 0.395 µM (active). Besides, the GI50 in experiment [17] was 2.05 µM (inactive); in experiment [18] it was 1.19 µM (inactive); in experiment [7] it was 0.379 µM (active); in [8] it was 3.14 µM (inactive); in experiment [9], 0.573 µM (active); in experiment [16] it was 1.44 µM (inactive). Besides, the GI50 in [10] was 0.713 µM (active); in experiment [11] it was 4.17 µM (inactive); in experiment [12], 1.9 µM (inactive); in experiment [14], 2.26 µM (inactive); in [19] it was 4.88 µM (inactive); in experiment [15], 1.11 µM (active). The GI50 in experiment [20] was 6.04 µM (inactive).
Consider `CC(NCCS(=O)(=O)O)C(=O)O` (centres undefined), for which the GI50 is > 100 µM (inactive) in experiment [2]; > 100 µM (inactive) in experiment [3]; 99.8 µM (inactive) in experiment [4]; > 100 µM (inactive) in [5]; > 100 µM (inactive) in experiment [6]; > 100 µM (inactive) in [7]. Also, the GI50 in experiment [9], in experiment [16], in experiment [10], in experiment [11], in [12] and in experiment [13] was > 100 µM (inactive) in each case. Besides, the GI50 in experiment [14] and in experiment [19] was > 100 µM (inactive) throughout.
Consider `CO/C=C1\OC(=O)C=C1OC`, for which the GI50 in experiment [2], in experiment [3], in [4], in experiment [5], in experiment [6] and in [7] was > 100 µM (inactive) each time. For the same compound, the GI50 in experiment [9], in experiment [16], in [10], in experiment [12], in experiment [14] and in experiment [19] was > 100 µM (inactive) throughout.
